Data on 3 molecules can be found in patent US9595012B2, “Method for improving the environmental impact of formulated products” (Johnson & Johnson Consumer Inc., priority 2010, dated 2017).

One data set relates to aquatic organisms. The experiment in a line: Overall toxicity scoring (minimum organism-specific toxicity score). As to conditions: scale 0-100; minimum of the organism-specific scores. On the procedure: Using the linear scoring scale in Table 5 (below), each of the three organism L(E)C50 values (i.e., LC50 or EC50 values) are transformed to an organism-specific toxicity score for the ingredient. If the organism-specific toxicity score is based on an estimated L(E)C50 value rather than an empirical L(E)C50 value, that score is reduced by an uncertainty penalty (e.g., 5 points).
The overall ingredient toxicity score is determined as the minimum organism-specific toxicity score. If no score could be determined for one class of aquatic indicator organism (i.e., primary producer, primary consumer, secondary consumer), the overall ingredient toxicity score is reduced by an uncertainty penalty (e.g., 5 points). If no score could be determined for two classes of aquatic indicator organisms, the overall ingredient score is reduced by a larger uncertainty penalty (e.g., 10 points).
The process used for ingredients that are organic compounds is also used for ingredients that are inorganic compounds with the following exceptions: (1) only empirical data are considered, as models for predicting the aquatic toxicity of metals are not widely available; (2) the toxicity of the ingredient and all plausible environmental degradants are calculated. The lowest Toxicity score among the ingredient and its plausible environmental degradants is assigned as the final Toxicity score for the ingredient.

Data set [1] concerns water flea. As to conditions: 50% immobilization, empirical acute study; cited from earlier work.
Data set [2] concerns fish. The conditions noted are these: 50% lethality, empirical acute study; cited from earlier work.
Data set [3] concerns algae. The conditions noted are these: 50% inhibition in growth rate, empirical acute study; cited from earlier work.
Data set [4] relates to fish. Kind of data set: Acute aquatic toxicity, vertebrate/secondary consumer, 50% lethality. The conditions noted are these: scale 0-100, from LC50 by Table 5.
The test system of data set [5] is water flea. Kind of data set: Acute aquatic toxicity, invertebrate/primary consumer, 50% immobilization. As to conditions: scale 0-100, from EC50 by Table 5.
The test system of data set [6] is algae. Kind of data set: Acute aquatic toxicity, aquatic plant/primary producer, 50% inhibition in growth rate. The conditions noted are these: scale 0-100, from EC50 by Table 5.

`OCC(O)CO` [Glycerin] gave a Toxicity score with aquatic organisms of 100. For the same molecule, the “Invertebrate EC50” value in the data set on water flea [1] was 10,000 mg/L. Besides, the “Fish LC50” value in the data set on fish [2] was 5,000 mg/L. Moreover, the “Aquatic Plant EC50” value with algae [3] was 46,000 mg/L. In the data set with fish [4], this molecule returned a Fish toxicity score of 100. The molecule also showed an Invertebrate toxicity score with water flea [5] of 100. Moreover, the “Aquatic Plant toxicity score” value in the data set with algae [6] came to 100.
As to `[Zn+2]` [Zn^2+], the Toxicity score entry in the data set with aquatic organisms is given as “zero”.
Turning to `[O]=[Zn]` [zinc oxide], the Toxicity score result in the data set on aquatic organisms was “zero”.
